Here are results for one compound from patent US20260103709A1, “C-MYC-TARGETING CHARGE-ALTERING RELEASABLE TRANSPORTERS AS ANTI-TUMOR AGENTS FOR BREAST CANCER THERAPY” (The Board of Trustees of the Leland Stanford Junior …, priority 2022, published 2026).

Usually IC50 stands for the concentration at which inhibition is half-maximal.

The test system of test [1] is human cell lines MDA-MB-436, MDA-MB-231, and BT20. Kind of test: JQ1 cell viability IC50, human TNBC cell lines (CellTiter Glo). The test is classed as cell-based. As to conditions: 24 hour treatment, range over human TNBC cell lines. As for the experimental part:
(§1) The specificity and dependence of CART siMYC's inhibitory effect on Myc or MYC levels in murine or human TNBC cells, respectively, was evaluated next. […] A number of different murine and human TNBC cell lines expressing high (murine cells: M158, M1011, and 4T1; and human cells: MDA-MB-231 and MDA-MB-436) or low MYC levels (human cell: BT20) were evaluated. […] The viability of M1011 and 4T1 cells was reduced by 25% upon treatment with CART siMYC but not with CARTs alone or with CART siLUC (FIG. 4B, FIG. 4C). In human TNBC cells, treatment with a human MYC-targeting siRNA (SEQ ID NO: 1) reduced viability by 35% or 22% in MDA-MB-231 or MDA-MB-436 cells, respectively (FIG. 4D, FIG. 4E). […] We conclude that CART siMYC is effective against TNBC cells expressing high, but not low, MYC levels and that the breadth of its therapeutic effects is dependent on cellular MYC levels.
(§2) […] 96-well plates were rocked for 5 minutes at room temperature, 100 μl from each well were transferred to a white opaque 96-well plate and luminescence was read using a SpectraMax Paradigm Multi-Mode Detection Platform plate reader (Molecular Devices).

For test [2], the system named is murine cell lines M1011, M158, and 4T1. The experiment in a line: JQ1 cell viability IC50, murine TNBC cell lines (CellTiter Glo). Particulars: 24 hour treatment, range over murine TNBC cell lines. The test is classed as cell-based, mouse. On the procedure: as §1, §2
(ATP-based viability assays read luminescence as a measure of living cells.)

In test [3] the test system is BT20 cells. The experiment in a line: Cell viability after CART with human MYC siRNA, BT20 (low MYC). Particulars: JQ1 at the concentrations used for pre-treatment. The test is classed as cell-based. As for the experimental part:
FIG. 4A to FIG. 4F: CART siMYC decreases cell viability in cells expressing high levels of Myc. […] Error bars represent SEM. Significance was taken at P<0.05 (*), P<0.01 (**), and P<0.005 (***). ns=not significant.
The specificity and dependence of CART siMYC's inhibitory effect on Myc or MYC levels in murine or human TNBC cells, respectively, was evaluated next. […] A number of different murine and human TNBC cell lines expressing high (murine cells: M158, M1011, and 4T1; and human cells: MDA-MB-231 and MDA-MB-436) or low MYC levels (human cell: BT20) were evaluated. […] The viability of M1011 and 4T1 cells was reduced by 25% upon treatment with CART siMYC but not with CARTs alone or with CART siLUC (FIG. 4B, FIG. 4C). In human TNBC cells, treatment with a human MYC-targeting siRNA (SEQ ID NO: 1) reduced viability by 35% or 22% in MDA-MB-231 or MDA-MB-436 cells, respectively (FIG. 4D, FIG. 4E). […]
Plates were incubated for 48 hours and upon treatment completion, a CellTiTer Glow assay was performed according to manufacturer's instructions (Promega). 96-well plates were rocked for 5 minutes at room temperature, 100 μl from each well were transferred to a white opaque 96-well plate and luminescence was read using a SpectraMax Paradigm Multi-Mode Detection Platform plate reader (Molecular Devices).

Structures are written as SMILES.

For the compound `Cc1sc2c(c1C)C(c1ccc(Cl)cc1)=N[C@@H](CC(=O)OC(C)(C)C)c1nnc(C)n1-2` [JQ1], the IC50 in test [1] was 7 to 32 µM; in test [2], 0.3 to 0.72 µM. Further, the “effect of JQ1 on BT20 cells” value in test [3] was “not significantly affected”.
